Data published in PubChem BioAssay AID179 (DTP/NCI, 2004).
Where “and” joins values, the source holds several entries; their conditions need not be identical. Identical values can stand only once. Calls of active or inactive are those of the source.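 The calls were made as follows: active = compounds giving half or more protection of infected cells from virus-caused growth loss, again on retest; inactive = the rest.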

Test system: CEM cells HIV-1 protection, formazan growth assay
Assay: NCI AIDS Antiviral Assay
Details: for IC50: measured here: growth of uninfected CEM cells
Outline: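 Human CEM cells, uninfected and HIV-1-infected, exposed to five drug concentrations; growth measured by soluble formazan assay and scored as percent protection from infection, with protecting compounds retested.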

| SMILES | EC50 | IC50 | outcome |
| --- | --- | --- | --- |
| CCN(CC)CCC(=O)c1ccccc1 | > 871 µM | > 200 µM and 26.9 µM | – |
| Oc1c2cccc1Cc1cccc3c1OCCOCCOCCOCCOc1c(cccc1Cc1cccc(c1O)C3)C2 | > 200 µM | 50.1 µM | – |
| O=C1Nc2ccccc2/C1=N/N1CCCCCC1 | > 200 µM | 97.7 µM | – |
| CC(=O)NCCC1CN(C(=O)/C=C\C#C[Si](C)(C)C)c2ccccc21 (stereo not given) | > 200 µM | 19.5 µM | – |
| Cc1ccc2c(c1C)CC1(Cc3c(C)ccc(C)c3C1=O)C2=O (stereo not given) | > 100 µM | > 100 µM | – |
| CCOc1ccc(NC2=CC(=O)C(=O)c3ccccc32)cc1 | > 9.55 µM | > 9.55 µM | – |
| CC1=C[C@H]2O[C@@H]3C[C@H]4OC(=O)/C=C\C=C\[C@H]([C@@H](C)O)OC[C@H](O)[C@@]5(C)O[C@@H]5C(=O)OC[C@@]2(C[C@H]1O)[C@]4(C)C31CO1 (stereo not given in full) | > 4.47 µM | 0.00575 µM | – |
| CN(C)C=Nc1ccc2c3c(cccc13)-c1ccccc1-2 | > 200 µM | 14.1 µM | – |
| CCCN(CCC)C(=S)Sc1nc(C)nc(N2CCN(c3nc(C)nc(SC(=S)N(CCC)CCC)c3[N+](=O)[O-])CC2)c1[N+](=O)[O-] | > 200 µM | 2.04 µM | – |
| NC(=O)c1ncn(C/C=C/CO)c1N | > 200 µM | > 200 µM | – |
| O=C(O)c1cnc2[nH]ccn2c1=O | > 200 µM | > 200 µM | – |
| N#CN=C1C=CC(=C(C#N)C#N)C=C1 | – | – | inactive |
| CC1=CC(=O)C(C)(C2=NC(C)(C)CO2)c2ccccc21 (stereo not given) | 51.3 µM | 575 µM | – |
| c1ccc(C2SCc3nc4ccccc4n32)cc1 (stereo not given) | > 141 µM | 35.5 µM | – |
| Cc1ccc(C(=O)Oc2ccc(/C=C3\CCC/C(=C\c4ccc(OC(=O)c5ccc(C)cc5)cc4)C3=O)cc2)cc1 | > 100 µM | > 100 µM | – |
| CC1CC/C(=C\c2ccc(Cl)cc2)C2OC(N)=C(C#N)C(c3ccc(Cl)cc3)=C12 (stereo not given) | – | – | inactive |
| COC1C(OC(=O)c2ccc(C)[nH]2)C(O)C(Oc2ccc3c(O)c(NC(=O)c4c[nH]c(C(=O)Nc5c(O)c6ccc(OC7OC(C)(C)C(OC)C(OC(=O)c8ccc(C)[nH]8)C7O)c(C)c6oc5=O)c4C)c(=O)oc3c2C)OC1(C)C (stereo not given) | > 28.2 µM | 7.41 µM | – |
| C=C(C)C(=O)OC1C[C@H](COC(C)=O)C2CC=C(C)C2C2OC(=O)C(=C)[C@H]12 (stereo not given in full) | > 200 µM | 1.05 µM | – |
| CC[C@]1(Cc2ccc(OC)c(OC)c2)C=[N+]([O-])O[C@H](OC2CCCC2(c2ccccc2)c2ccccc2)[C@@H]1OC(=O)C(C)(C)C (stereo not given in full) | > 200 µM | 1.17 µM | – |
| COc1ccc(N2C(=O)C3CSCN3C2=O)cc1 (stereo not given) | > 200 µM | > 200 µM | – |
| C=CCSc1n[nH]c(=S)c2nc[nH]c12 | > 200 µM | 129 µM | – |

| SMILES | EC50 | IC50 | outcome |
| --- | --- | --- | --- |
| CC(=O)NNc1nc(C)c(C(/C=C/c2ccc(/C=C/C(=N\NC(=O)c3ccncc3)c3sc(NNC(C)=O)nc3C)cc2)=N/NC(=O)c2ccncc2)s1 | > 13.2 µM | > 13.2 µM | – |
| COC(=O)C1CC(C(=O)OC)c2nc3cc([N+](=O)[O-])ccc3nc21 (stereo not given) | > 151 µM | 61.7 µM | – |
| O=C(Nc1c(Cl)cc([N+](=O)[O-])cc1Cl)/C(=N\Nc1cccc(Cl)c1)c1c(O)c2ccccc2oc1=O | > 24.5 µM | > 24.5 µM | – |
| O=c1oc2ccccc2c(O)c1C(c1ccc(Cl)cc1)c1c(O)c2ccccc2oc1=O | > 200 µM | 26.3 µM | – |
| OC1C(O)C(O)C2(CO2)C(O)C1O (stereo not given) | > 200 µM | > 200 µM | – |
| CC1=C(C)[C@]2(C)C(C)[C@]13Cn1c(=O)n(-c4ccccc4)c(=O)n1[C@@]32C (stereo not given in full) | > 77.6 µM | 51.3 µM | – |
| Cc1cc(NS(=O)(=O)c2ccc(Nc3c4ccccc4nc4c(C(=O)Nc5ccc(S(=O)(=O)N=C(N)N)cc5)ccc(Cl)c34)cc2)no1 | > 51.3 µM | > 51.3 µM | – |
| Cc1cn(CCCCOC(=O)NC(CCCN=C(N)N)C(=O)O)c(=O)[nH]c1=O (stereo not given) | > 200 µM | > 200 µM | – |
| c1cc2nnc1SCCSCCSc1ccc(nn1)SCCSCCS2 | > 200 µM | > 200 µM | – |
| CS(=O)(=O)N1CC(CCl)c2ccc(S)cc21 (stereo not given) | – | – | inactive |
| Cc1nn(C)c2c1C(=O)N(C)CC(=O)N2C | > 200 µM | > 200 µM | – |
| COc1ccccc1C(=O)[O][Sn]([c]1ccccc1)([c]1ccccc1)[c]1ccccc1 | > 2 µM | 0.219 µM | – |
| COc1ccc(-c2c(-c3ccccc3)c(C)c3ccccn23)cc1 | > 200 µM | 42.7 µM | – |
| Cc1nc2cc(Cl)cc(N)c2nc1C | > 631 µM | 295 µM | – |
| CC(Oc1ccc2cc(C(=O)c3ccccc3)c(=O)oc2c1)C(=O)O (stereo not given) | – | – | inactive |
| O=c1c2cc([N+](=O)[O-])ccc2oc2ccc([N+](=O)[O-])cc12 | > 13.2 µM | > 13.2 µM | – |
| COc1ccc2c(=O)c(-c3cc4c(cc3OC)OCO4)coc2c1 | > 200 µM | > 200 µM | – |
| COc1ccc(/C=C/c2ccc3ccccc3n2)cc1OC | > 200 µM | 36.3 µM | – |
| Sc1cc2c(c3ccccc13)Nc1ccccc1S2 | > 200 µM | 123 µM | – |
| OCCN1CCN(CCCN2c3ccccc3Sc3ccc(C(F)(F)F)cc32)CC1 | > 200 µM | 10.2 µM | – |
| Cc1ccc(C2SCc3nc4ccccc4n32)cc1 (stereo not given) | > 200 µM | 1.02 µM | – |

| SMILES | EC50 | IC50 | outcome |
| --- | --- | --- | --- |
| COC(=O)C(C(=O)C(=O)Nc1cccc(O)c1)c1nc2ccc(Cl)cc2[nH]c1=O (stereo not given) | > 87.1 µM | 85.1 µM | – |
| CC(=O)NC1NCCNC1=O (stereo not given) | > 200 µM | > 200 µM | – |
| COc1cc2c(cc1O)[C@H](C)C(c1ccc(OC)c(OC)c1)O2 (stereo not given in full) | > 214 µM | 10.5 µM | – |
| CC(=O)OCC1OC(n2c(-c3ccccc3)cc(-c3ccco3)c(C#N)c2=O)C(OC(C)=O)C(OC(C)=O)C1OC(C)=O (stereo not given) | > 17 µM | > 17 µM and 12.6 µM | – |
| Cc1cc(N)c(C)c2c1[nH]c1ccc(O)cc12 | > 302 µM | 28.8 µM | – |
| Cc1cc(C)n(-c2nc(C)c(CCO)c(=O)[nH]2)n1 | – | – | inactive |
| NNC(=O)CC(=O)Nc1ccccc1F | > 1170 µM | 871 µM | – |
| O=C(CC1NCCS1)OCc1ccc(Br)cc1 (stereo not given) | 19.1 µM | 81.3 µM | – |
| COc1ccc2c(c1)CC1(O)COc3cc(OC)ccc3C1O2 (stereo not given) | > 200 µM | 67.6 µM | – |
| C/C(=N\NC(=S)N1CCCCC1)c1cccc(C)n1 | > 0.2 µM | 0.00617 µM | – |
| Cc1c(C(=O)NNc2ccccc2)n2c(=S)[nH]nc2c2ccccc12 | > 200 µM | 93.3 µM | – |
| Cc1cccc(N=N/C(=N\NC(=O)c2cc(Cl)ccc2O)c2ccc(N(CCC#N)CCC#N)cc2C)c1 | > 200 µM | 30.9 µM | – |
| CC12CC3CC(C)(C1)CC(SC(=N)N)(C3)C2 | > 776 µM | 38.9 µM | – |
| C[N+](C)(C)c1ccc(/C=C2\C=Cc3ccccc32)cc1 | – | – | inactive |
| FC(F)(F)c1cccc(COCCN2CCN(Cc3cccc(C(F)(F)F)c3)CC2)c1 | > 200 µM | 18.2 µM | – |
| Cc1n[nH]c(=O)n1/N=C\c1ccccc1 | > 200 µM | > 200 µM | – |
| C#CN1C(=O)c2c(c(-c3ccccc3)c(-c3ccc(Oc4ccc(-c5c(-c6ccccc6)c6c(c(-c7ccccc7)c5-c5ccccc5)C(=O)N(C#C)C6=O)cc4)cc3)c(-c3ccccc3)c2-c2ccccc2)C1=O | > 10.2 µM | > 10.2 µM | – |
| COC(=O)N/N=C(\c1nc2ccc(Cl)cc2[nH]c1=O)C(O)c1ccc([N+](=O)[O-])cc1 (stereo not given) | > 575 µM | 550 µM | – |
| C=C1C(OC(=O)C(O)C(c2ccccc2)N(C)C)C[C@H](OC(C)=O)[C@]2(C)C1C[C@@H]1CC(OC(C)=O)C(C)=C([C@@H](OC(C)=O)C2OC(C)=O)C1(C)C (stereo not given in full) | – | – | inactive |
| COC(=O)C1=NOC2C(=O)N(c3ccccc3)C(=O)C12 (stereo not given) | > 200 µM | > 200 µM | – |
| N#Cc1c(Cl)cc(C#N)n2c1nc1ccccc12 | > 20 µM | 0.363 µM | – |

| SMILES | EC50 | IC50 | outcome |
| --- | --- | --- | --- |
| CCN(CC)c1ccc2cc(-c3csc(-c4ccc(N(C)C)cc4)n3)c(=O)oc2c1 | > 100 µM | 10 µM | – |
| CN(C)CC/[N+]([O-])=C(/c1ccccc1)C12CC3CC(CC(C3)C1)C2 | – | – | inactive |
| Cn1cc(C(=O)c2ccccc2)cc(C(=O)c2ccccc2)c1=O | – | – | inactive |
| CC(=O)OCCCCCn1cnc(C(N)=O)c1N | > 200 µM | > 200 µM | – |
| c1cncc(CN2CCCCCC2)c1 | – | – | inactive |
| COC(=O)[C@]1(C)C(OC)=CC(=O)C2C1[C@H]1CCC[C@@H]21 (stereo not given in full) | – | – | inactive |
| c1cc2c(c(NC3=NCCO3)c1)CCC2 | > 200 µM | 112 µM | – |
| c1ccc2c(c1)CCc1c(-c3noc4c3CCc3ccccc3-4)noc1-2 | > 148 µM | > 148 µM | – |
| Clc1cccc(-c2nnc(-c3nn(-c4ccccc4)c4nc5ccccc5nc34)o2)c1 | > 4.68 µM | > 4.68 µM | – |
| CC1CC(=O)Nc2ccccc2N1 (stereo not given) | > 200 µM | > 200 µM | – |
| CC(=O)OCC1OC(n2c(=S)n(-c3ccccc3)c(=S)c3ccccc32)C(OC(C)=O)C(OC(C)=O)C1OC(C)=O (stereo not given) | > 16.6 µM | > 16.6 µM | – |
| CNCC(=O)c1ccc(O)c(O)c1 | > 200 µM | > 200 µM | – |
| O=S(=O)(O)c1cc2c(c(S(=O)(=O)O)c1)[O][Sb]1([O]2)[O]c2cc(S(=O)(=O)O)cc(S(=O)(=O)O)c2[O]1 | > 324 µM | > 324 µM | – |
| CN1N=C(c2ccccc2)C(C(c2ccccc2[N+](=O)[O-])C2C(=O)N(C)N=C2c2ccccc2)C1=O (stereo not given) | > 81.3 µM | 15.8 µM | – |
| CC(O)=NC(Cc1ccc2ccccc2c1)C(O)=NC(Cc1ccc(Cl)cc1)C(O)=NC(Cc1c[nH]c2ccccc12)C(O)=NC(CO)C(O)=NC(Cc1ccc(O)cc1)C(O)=NC(CCCN=C(N)N)C(O)=NC(CC(C)C)C(O)=NC(CCCN=C(N)N)C(=O)N1CCCC1C(O)=NC(C)C(=N)O (stereo not given) | > 87.1 µM | > 87.1 µM | – |
| N#Cc1cccc(NC(=O)c2ccc(C(=O)O)c(C(=O)c3ccc(C(=O)O)c(C(=O)Nc4cccc(C#N)c4)c3)c2)c1 | > 170 µM | > 170 µM | – |
| COc1ccc(C2SC(N)=Nc3c2c(C)nn3C(=O)c2ccc(Cl)cc2)cc1 (stereo not given) | > 200 µM | 151 µM | – |
| CSc1ccc(/C=C2\C=Cc3ccccc32)cc1 | > 28.8 µM | > 28.8 µM | – |
| CCCC1=C(OC)C(=O)c2c(C)cc(Cl)nc2C1=O | > 200 µM | 4.07 µM | – |
| Cc1ccc(/C=C2/N=C(N/N=C\c3ccccc3)NC2=O)cc1 | > 200 µM | 129 µM | – |
